The record followed here is patent US7816408B2, “Calcium receptor active compounds” (NPS Pharmaceuticals, Inc., priority 2002, dated 2010).

The target of assay [1] is T1, human calcium receptor (Homo sapiens, UniProt P41180).
T1 construct: expressed in transfected cells; host or cells: HEK293
T1 sequence (P41180 20-1078): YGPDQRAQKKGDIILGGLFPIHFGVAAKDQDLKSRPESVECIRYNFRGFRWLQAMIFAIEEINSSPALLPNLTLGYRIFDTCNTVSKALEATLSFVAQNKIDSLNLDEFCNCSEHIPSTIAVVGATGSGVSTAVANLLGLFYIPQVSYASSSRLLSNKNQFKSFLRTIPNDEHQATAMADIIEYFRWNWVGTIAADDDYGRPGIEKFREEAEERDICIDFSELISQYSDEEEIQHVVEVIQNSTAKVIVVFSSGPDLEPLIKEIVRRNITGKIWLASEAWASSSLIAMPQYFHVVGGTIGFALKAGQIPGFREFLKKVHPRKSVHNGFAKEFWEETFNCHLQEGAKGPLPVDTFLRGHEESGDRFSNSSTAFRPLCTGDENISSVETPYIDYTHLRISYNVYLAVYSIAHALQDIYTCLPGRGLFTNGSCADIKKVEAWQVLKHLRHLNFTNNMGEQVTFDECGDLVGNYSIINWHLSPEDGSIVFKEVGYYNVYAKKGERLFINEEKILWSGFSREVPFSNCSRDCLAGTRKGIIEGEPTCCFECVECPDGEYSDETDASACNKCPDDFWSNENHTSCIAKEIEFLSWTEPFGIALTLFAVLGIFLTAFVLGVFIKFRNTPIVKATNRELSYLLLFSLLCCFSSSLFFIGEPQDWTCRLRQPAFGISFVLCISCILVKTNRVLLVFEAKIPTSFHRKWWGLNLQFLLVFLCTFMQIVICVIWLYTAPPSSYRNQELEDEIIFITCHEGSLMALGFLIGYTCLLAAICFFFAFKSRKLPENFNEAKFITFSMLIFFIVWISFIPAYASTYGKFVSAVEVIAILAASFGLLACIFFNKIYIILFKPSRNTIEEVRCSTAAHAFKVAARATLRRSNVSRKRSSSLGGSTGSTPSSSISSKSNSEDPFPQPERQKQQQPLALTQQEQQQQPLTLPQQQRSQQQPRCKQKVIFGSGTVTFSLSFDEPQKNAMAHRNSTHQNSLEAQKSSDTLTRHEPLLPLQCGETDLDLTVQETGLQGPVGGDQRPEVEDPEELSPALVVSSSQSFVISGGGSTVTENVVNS
The experiment in a line: Activity on calcium receptors: fluo-3 fluorescence in HEK293 cells transfected with human calcium receptor gene. The class given is cell-based. Conditions: HEK293 cells transfected with plasmid pHuPCaR4.0 (human calcium receptor gene), loaded with fluo-3; 1 mM CaCl2, 1 mM MgCl2. The method, then:
The activities of the compounds of the present invention on calcium receptors were measured. The measurement was performed in accordance with the method described in Example 4 of Nemeth et al., PCT/US95/13704 (International Publication No. WO96/12697). In brief, HEK293 cells were transfected with a plasmid pHuPCaR4.0 containing a human calcium receptor gene and loaded with fluo-3. The loading was carried out by incubating the cells at 37° C. for 1 hour in Dulbecco's modified Eagle's medium which contained about 5 μM of fluo-3/AM and had been buffered with 20 mM HEPES. Next, the cells were rinsed with Hank's balanced salt solution which contained 1 mM CaCl2 and 1 mM MgCl2 and had been buffered with 20 mM HEPES. Then each test compound was added to the cells and the fluorescence was measured with the use of an excitation wavelength of 485 nm and an emission wavelength of 540 nm.

The test system of assay [2] is normal male SD rats. Nature of the assay: Plasma Ca^2+ level of rats after single oral administration. The class given is in vivo. Conditions: rat, mean of six animals, vehicle 10% cyclodextrin (** 1% sodium-CMC). As to the method:
The compound of the present invention was administered to rats so as to examine the effects of the compound on the plasma calcium ion level and serum PTH level. The test was performed by orally administering single dose of the compound of the invention or a control compound to normal male SD rats with six animals in each group.
To the group 1 was administered as a control a 10% cyclodextrin aqueous solution in a dose of 2.5 ml/kg. To the group 2 was administered as a reference (R)-N-(3-(2-chlorophenyl)propyl)-1-(3-methoxyphenyl)ethylamine (KRN568) dissolved in a 10% cyclodextrin aqueous solution in a dose of 30 μmol/kg. To the group 3 was administered the compound of the present invention dissolved in a 10% cyclodextrin aqueous solution in a dose of 30 μmol/kg, provided that 1% sodium-CMC aqueous solution was used in place of 10% cyclodextrin aqueous solution for the compounds marked with ** in Table 2.
Blood of each rat was collected from the tail tip before the administration and 30 minutes and 1, 2, 4, 8 and 24 hours thereafter (or at the time indicated in Table 2), and the plasma Ca^2+ level and serum PTH level were measured. The data of the serum PTH level were statistically processed by the multiple comparison analysis in accordance with Steel's calibration by using the group 1 as the control.

For the compound `CC(NCCSc1cc(Cl)ccc1Cl)c1cccc(OCCCCCCCl)c1` (racemic) [Compound K-2260, (±)-N-(1-(3-(6-chlorohexyloxy)phenyl)ethyl)-2-(2′,5′-dichlorophenylthio)ethylamine], the EC50 (as a rule, the concentration at which the effect is half-maximal) in assay [1] is 0.096 µM.
Turning to `Cc1ccc(COc2cccc(C(C)NCCSc3cc(Cl)ccc3Cl)c2)cc1` (racemic) [Compound K-2268, (±)-N-(1-(3-(4-methylbenzyloxy)phenyl)ethyl)-2-(2′,5′-dichlorophenylthio)ethylamine], in assay [1], the EC50 came to 0.089 µM.
On the same count and under the same terms, for `COc1cccc(C(C)NCCCCOc2ccccc2Cl)c1` (stereo not drawn) [Compound 2] the value was 13 µM; for `COc1cccc(C(C)NCCCCCCOc2ccccc2Cl)c1` (stereo not drawn) [Compound 6], 7.6 µM.
On the same count and under the same terms, for `COc1cccc(C(C)NCCCCOc2cccc(Cl)c2)c1` (stereo not drawn) [Compound 8] the value was 1.9 µM; for `COc1cccc(C(C)NCCCCCOc2cccc(Cl)c2)c1` (stereo not drawn) [Compound 10], 1 µM.
Same read-out and setting: the value for `COc1cccc(C(C)NCCCCCCOc2cccc(Cl)c2)c1` (stereo not drawn) [Compound 12] was 1.2 µM.
With `COc1cccc([C@@H](C)NCCCCOc2ccc(Cl)cc2)c1` [Compound 14], the EC50 in assay [1] is 2.9 µM.
On the same count and under the same terms, the value for `COc1cccc(C(C)NCCCCCOc2ccc(Cl)cc2)c1` (stereo not drawn) [Compound 16] was 0.55 µM; that for `COc1cccc(C(C)NCCCCCCOc2ccc(Cl)cc2)c1` (stereo not drawn) [Compound 18] was 0.75 µM.
On the same count and under the same terms, for `COc1cccc(C(C)NCCCSc2ccccc2Cl)c1` (stereo not drawn) [Compound 20] the value was 3.2 µM; for `COc1cccc(C(C)NCCCCCSc2ccccc2Cl)c1` (stereo not drawn) [Compound 24], 0.44 µM.
Consider `COc1cccc(C(C)NCCCCCCSc2ccccc2Cl)c1` (stereo not drawn) [Compound 26], for which the EC50 in assay [1] amounted to 1.8 µM.
Turning to `COc1cccc(C(C)NCCCSc2ccc(Cl)cc2)c1` (stereo not drawn) [Compound 28], the 50% effective concentration (EC50) in assay [1] was 1.6 µM.
In the case of `COc1cccc(C(C)NCCCCSc2nc3ccccc3s2)c1` (stereo not drawn) [Compound 36], the EC50 in assay [1] was 0.21 µM.
Same read-out and setting: the value for `COc1cccc(C(C)NCCCCCSc2nc3ccccc3s2)c1` (stereo not drawn) [Compound 38] was 0.98 µM; that for `COc1cccc([C@@H](C)NCCCCCCSc2nc3ccccc3s2)c1` [Compound 40] was 5.1 µM.
`COc1cccc(C(C)NCCCOC2c3ccccc3-c3ccccc32)c1` (stereo not drawn) [Compound 56]: the EC50 in assay [1] amounted to 0.28 µM.
Turning to `COc1cccc(C(C)NCCCOc2ccc3c(c2)Cc2ccccc2-3)c1` (stereo not drawn) [Compound 59], the EC50 in assay [1] was 1.02 µM.
In the case of `COc1cccc(C(C)NCCCOc2ccccc2Cl)c1` (stereo not drawn) [Compound 62], in assay [1], the EC50 came out at 0.509 µM.
On the same count and under the same terms, for `COc1cccc(C(C)NCCCOc2cccc(Cl)c2)c1` (stereo not drawn) [Compound 65] the value was 0.524 µM; for `COc1cccc(C(C)NCCCOc2ccc(Cl)cc2)c1` (stereo not drawn) [Compound 68], 0.65 µM; for `COc1cccc(C(C)NCCCOc2ccc3ccccc3c2)c1` (stereo not drawn) [Compound 74], 7.2 µM.
The same measure, in the same setting: the value for `COc1cccc(C(C)NCCCSc2ccc3ccccc3c2)c1` (stereo not drawn) [Compound 77] was 1 µM.
For the compound `COc1cccc(C(C)NCCCOc2ccc3[nH]ccc3c2)c1` (stereo not drawn) [Compound 80], in assay [1], the EC50 was 0.464 µM.
The same measure, in the same setting: the value for `COc1cccc([C@@H](C)NCCCOc2ccc(-c3ccccc3)cc2)c1` [Compound 83] was 1 µM.
The same measure, in the same setting: the value for `COc1cccc(C(C)NCCCNC(C)c2cccc(OC)c2)c1` (stereo not drawn) [Compound 88] was 3.2 µM.
The same measure, in the same setting: for `CC(NCCCNC(C)c1cccc2ccccc12)c1cccc2ccccc12` (stereo not drawn) [Compound 93] the value was 0.11 µM.
With `CC(NCCCOc1ccc2oc(-c3ccccc3)cc(=O)c2c1)c1cccc2ccccc12` (stereo not drawn) [Compound 103], the half-maximal effective concentration (EC50) in assay [1] worked out at 0.3 µM.
Turning to `COc1cccc([C@@H](C)NCCCc2ccccc2Cl)c1` [KRN568, (R)-N-(3-(2-chlorophenyl)propyl)-1-(3-methoxyphenyl)ethylamine, reference compound], the “Plasma Ca^2+ (mmol/l) 1 hr” value in assay [2] (1 hr after single oral dose 30 μmol/kg) turned out to be 1.305 mmol/L. The “Plasma Ca^2+ (mmol/l) 2 hr” value in assay [2] (2 hr after single oral dose 30 μmol/kg) came to 1.237 mmol/L. In assay [2] (4 hr after single oral dose 30 μmol/kg), the “Plasma Ca^2+ (mmol/l) 4 hr” value came to 1.290 mmol/L. Moreover, in assay [2] (8 hr after single oral dose 30 μmol/kg), the “Plasma Ca^2+ (mmol/l) 8 hr” value was found to be 1.340 mmol/L.
